Target: T1, Farnesyl-protein transferase (Bos taurus, UniProt P29702+P49355)
T1 construct: Farnesyl-protein transferase from bovine brain; from tissue; host or cells: bovine brain, partially purified (DEAE-Sephacel, N-octyl agarose, mono Q HPLC)
Test: Inhibition of Ras farnesylation in vitro by farnesyl-protein transferase (FTase)
Assay type: biochemical
Settings: partially purified bovine brain FTase; Ras-CVLS 3.5 μM, [3H]FPP 0.25 μM; averages of 2-5 determinations
Protocol: The farnesyl pyrophosphate analog compounds of this invention were tested as follows for their ability to inhibit Ras farnesylation in vitro. Farnesyl-protein transferase from bovine brain was chromatographed on DEAE-Sephacel (Pharmacia, 0-0.8M NaCl gradient elution), N-octyl agarose (Sigma, 0-0.6M NaCl gradient elution), and a mono Q HPLC column (Pharmacia, 0-0.3M NaCl gradient). Ras-CVLS at 3.5 μM, 0.25 μM [^3 H]FPP, and the indicated compounds were incubated with this partially purified enzyme preparation.
The FTase data presented above are the averages of 2-5 determinations and reflect the ability of the test compounds to inhibit Ras farnesylation in vitro.

| Compound | IC50 |
| --- | --- |
| CC(C)=CCC/C(C)=C/CC/C(C)=C/CCC(O)CP(=O)(O)O (stereo not drawn) [Scheme 3, [2-Hydroxy-6,10,14-trimethylpentadeca-5,9,13-trienyl]phosphonic acid] | 100 µM |
| [2-[(E,E)-3,7,11-Trimethyl-2,6,10-dodecatrienylamino]-2-oxo-ethyl]phosphonic acid monomethyl ester, potassium salt [Scheme 8] | 100 µM |
| CC(C)=CCC/C(C)=C/CC/C(C)=C/CNC(=O)CP(=O)(O)O [Scheme 5, [2-[(E,E)-3,7,11-Trimethyl-2,6,10-dodecatrienylamino]-2-oxo-ethyl]phosphonic acid] | 0.044 µM |
| [1-Hydroxy-(E,E)-4,8,12-trimethyl-3,7,11-tridecatrienyl]phosphonic acid [Scheme 12] | 42 µM |

Next, values leading:

| IC50 | Compound |
| --- | --- |
| 310 µM | CC(C)=CCC/C(C)=C/CC/C(C)=C/CCC(O)CC(=O)O (stereo not drawn) [Scheme 1, 3-Hydroxy-7,11,15-trimethylhexadeca-6,10,14-trienoic acid] |
| 100 µM | CC(C)=CCC/C(C)=C/CC/C(C)=C/CCSCP(=O)(O)O [Scheme 6, [(E,E)-4,8,12-trimethyl-3,7,11-tridecatrienyl]thiomethyl-phosphonic acid] |
| 62 µM | CC(C)=CCC/C(C)=C/CC/C(C)=C/CCC(=O)CP(=O)(O)O [Scheme 2, [2-Oxo-6,10,14-trimethylpentadeca-5,9,13-trienyl]phosphonic acid] |
| 21 µM | CC(=O)C(C/C=C(\C)CC/C=C(\C)CCC=C(C)C)P(=O)(O)O (stereo not drawn) [Scheme 4, [1-Acetyl-4,8,12-trimethyltrideca-3,7,11-trienyl]phosphonic acid] |

Test system: Ras farnesylation
Test: not given
Settings: Hancock et al., Casey et al., Schafer et al.; cited from earlier work

| Compound | Inhibition of Ras farnesylation in vivo |
| --- | --- |
| CC[C@H](C)C(=O)O[C@H]1C[C@@H](C)C=C2C=C[C@H](C)[C@H](CC[C@@H]3C[C@@H](O)CC(=O)O3)[C@H]21 [lovastatin] | Inhibition of Ras farnesylation in vivo has been demonstrated |
| CC[C@H](C)C(=O)O[C@H]1CCC=C2C=C[C@H](C)[C@H](CC[C@@H]3C[C@@H](O)CC(=O)O3)[C@H]21 [compactin] | Inhibition of Ras farnesylation in vivo has been demonstrated |

Test system: HMG-CoA reductase
Test: not given
Settings: cited from earlier work

| Compound | Inhibition of HMG-CoA reductase |
| --- | --- |
| CC[C@H](C)C(=O)O[C@H]1C[C@@H](C)C=C2C=C[C@H](C)[C@H](CC[C@@H]3C[C@@H](O)CC(=O)O3)[C@H]21 [lovastatin] | inhibit HMG-CoA reductase |
| CC[C@H](C)C(=O)O[C@H]1CCC=C2C=C[C@H](C)[C@H](CC[C@@H]3C[C@@H](O)CC(=O)O3)[C@H]21 [compactin] | inhibit HMG-CoA reductase |
